Reference: patent publication US11951134B2, “Cationic platelet lysate compositions and related methods” (North Carolina State University, priority 2019, dated 2024)

Columns and labels:
[1] = test system: all isolates used in this study; assay: Antimicrobial susceptibility by microbroth dilution; format: cell-based
From the text: The laboratory strain of Staphylococcus aureus, ATCC 25923, was used to initially screen the different PRP formulations. Significant findings were then validated using clinical isolates derived from cases of equine septic arthritis collected by the University of Pennsylvania School of Veterinary Medicine New Bolton Center Clinical Microbiology Laboratory and processed in accordance with their Standard Operating Procedures. In vitro antimicrobial susceptibility testing and microbial identification was performed using the ARIS Sensititre™ system, using the equine (EQUIN1F) antimicrobial susceptibility panel for veterinary organisms. Bacteria were saved in frozen stocks on glycerol at −80° C. Blood agar plates were streaked from frozen stocks and used for in vitro experiments for a maximum of 1 month. […]
Synovial fluid pooled from three horses (n=3) was infected at 1×10^5 CFU/mL for Staphylococcus aureus (ATCC 25923) or for each clinical isolate (Staphylococcus aureus, Streptococcus zooepidemicus, Pseudomonas aeruginosa, and Escherichia coli) and incubated for 2 hours at 37° C. in a microaerophilic chamber on a shaker at 120 rpm to allow for […] formation. […] Bacterial load was measured using serial dilutions and plate counting of colony forming units. […]

[2] = test system: S. aureus (ATCC 25923) infected tarsocrural joint; assay: Equine S. aureus infectious arthritis model (BIO-PLY 5 mL + 500 mg amikacin vs 500 mg amikacin + saline, intra-articular daily for 7 days); format: in vivo, horse; conditions: end-term (day 24; legend b39: day 23-24); BIO-PLY + amikacin group vs amikacin alone group, n=6 each
From the text: Subsequently, the in vitro findings were translated into an in vivo equine model of S. aureus-induced infectious arthritis. Using this model, it was hypothesized that the combination of BIO-PLY and amikacin will decrease bacterial burden and improve outcome parameters in an equine S. aureus infectious arthritis model compared to horses treated with amikacin alone. A highly concentrated (>50 fold), pooled PRP-L was generated from 8 healthy donor horses and processed to have the anionic fraction, including fibrinogen, removed and passed through a 10 kDa molecular weight cutoff filter to remove proteins […] termed BIO-PLY as stated above (IACUC protocol #16-189 of NC State University, Raleigh, N.C.). […]
All horses received systemic antimicrobials (potassium penicillin and gentamicin) for 10 days post-infection as well as a tapering course of phenylbutazone for the duration of the study. Physical examinations were performed daily and pain scores based on lameness, hock swelling, distal limb swelling, pain to palpation, and presence of heat were calculated at days 0-7, 14 and 21. […] Synovial fluid was collected on day 0-7 and assessed for total protein (TP), total nucleated cell count (TNCC), cellular differential, and bacterial load determination, as well as biomarker analysis (EMD Millipore MILLIPLEX MAP Equine Cytokine/Chemokine Magnetic Bead Panel). […]

## NCC[C@H](O)C(=O)N[C@@H]1C[C@H](N)[C@@H](O[C@H]2O[C@H](CN)[C@@H](O)[C@H](O)[C@H]2O)[C@H](O)[C@H]1O[C@H]1O[C@H](CO)[C@@H](O)[C@H](N)[C@H]1O [amikacin]
[1]
  susceptibility of isolates to amikacin: susceptible
[2]
  bacteria within the synovial tissue at end-term: 80.95±58.77 CFU/g tissue
